System: primary cultures of osteoblasts from fetal rat calvarias
Experiment: in vitro DNA-synthesis assay
Type: cell-based
Protocol: Compounds of general formula (I) were tested in an in vitro DNA-synthesis assay. The cells used were primary cultures of osteoblasts from fetal rat calvarias. The experiments were performed in an analogous manner as published in Pfeilschifter et al., Endocrinology 126, 703 (1990).

Row | Substance | Biological activity in % compared to control (100%) (0.001 μg/ml) | Biological activity in % compared to control (100%) (0.01 μg/ml) | Biological activity in % compared to control (100%) (0.1 μg/ml) | Biological activity in % compared to control (100%) (1.0 μg/ml) | Biological activity in % compared to control (100%) (10 μg/ml)
1 | Ada-Aba-W | 173% | 184% | 228% | 223% | 261%
2 | Ada-Ava-W | 116% | 152% | 182% | 183% | 229%
3 | Ada-SAW | 122% | 148% | 199% | 162% | 188%
